Assay results from patent US20080286201A1, “Caspase-3 Substrate Comprising Imaging Agents” (priority 2005, published 2008).
Square brackets hold non-standard residues; d marks the D form. Peptide text beside a SMILES is read from it. Tyr(3-I) = N[C@@H](Cc1ccc(O)c(I)c1)C(=O)O; Orn = NCCC[C@H](N)C(=O)O

Assays:
[1] = system: phosphatidylserine (PS) on the outer membrane of apoptotic cells; settings: read-out: affinity of binding to phosphatidylserine; cited from earlier work
caspase-3 = target: T1, caspase-3 (Homo sapiens, UniProt P42574); experiment: Caspase-3 assay kit (BIOMOL QuantiZyme Assay System), potency (Ki) of caspase-3 test substrates; format: biochemical
T1 construct: purchased BIOMOL
T1 sequence (P42574 29-175 limits assumed): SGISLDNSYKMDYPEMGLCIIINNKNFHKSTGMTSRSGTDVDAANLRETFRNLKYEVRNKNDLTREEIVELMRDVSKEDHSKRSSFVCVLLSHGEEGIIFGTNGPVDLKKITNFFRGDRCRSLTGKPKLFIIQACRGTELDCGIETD
T1 sequence (P42574 176-277 limits assumed): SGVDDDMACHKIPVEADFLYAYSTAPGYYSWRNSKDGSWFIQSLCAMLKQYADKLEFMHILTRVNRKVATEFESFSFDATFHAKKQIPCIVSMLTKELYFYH
Description: Potency (Ki) of the caspase-3 test substrates was evaluated using a commercially available caspase-3 assay kit (BIOMOL QuantiZyme™ Assay System, CASPASE-3 Assay Kit for Drug Discovery). The DEVD substrate sequence was bio-modified with the additional of both tyrosine residues for radiolabelling and leader sequence to aid cell penetration. In vitro potency was maintained following both of these bio-modifications.

Row | Ki (caspase-3) | Molecule | Kd [1]
1 |  | Annexin-5: endogenous human protein (RMM 36 kDa) which binds to phosphatidylserine on apoptotic cells | ~0.001 µM
2 | 7.83 µM | CC(=O)N[C@@H](CC(=O)O)C(=O)N[C@@H](CCC(=O)O)C(=O)N[C@H](C(=O)N[C@@H](CC(=O)O)C(=O)NCC(=O)N[C@@H](Cc1ccc(O)c(I)c1)C(N)=O)C(C)C [Compound 2] (Ac-DEVDG[Tyr(3-I)]-NH2) | 
3 | 7.74 µM | CC(=O)N[C@@H](CC(=O)O)C(=O)N[C@@H](CCC(=O)O)C(=O)N[C@H](C(=O)N[C@@H](CC(=O)O)C(=O)Nc1ccc2c(C)cc(=O)oc2c1)C(C)C [Ac-Asp-Glu-Val-Asp-AMC, reference compound] | 

Row | Molecule | Ki (caspase-3) | Kd [1]
4 | CC(=O)N[C@@H](CCCNC(=N)N)C(=O)N[C@@H](CCCCN)C(=O)N[C@@H](CCCCN)C(=O)N[C@@H](CCCNC(=N)N)C(=O)N[C@@H](CCCNC(=N)N)C(=O)N[C@@H](CCCN)C(=O)N[C@@H](CCCNC(=N)N)C(=O)N[C@@H](CCCNC(=N)N)C(=O)N[C@@H](CCCNC(=N)N)C(=O)NCC(=O)N[C@@H](CC(=O)O)C(=O)N[C@@H](CCC(=O)O)C(=O)N[C@H](C(=O)N[C@@H](CC(=O)O)C(=O)NCC(=O)N[C@@H](CCCCN)C(=O)N[C@@H](CCCCN)C(=O)N[C@@H](Cc1ccc(O)c(I)c1)C(N)=O)C(C)C [Compound 22] (Ac-RKKRR[Orn]RRRGDEVDGKK[Tyr(3-I)]-NH2) | 9.24 µM | 
